The values below come from PMC6269819, “Evaluation of the Biological Activity of Naturally Occurring 5,8-Dihydroxycoumarin” (Molecules, 2013).

Each structure is given as a SMILES string. Marks after values point to notes of the source that are not given here.

The subject of data set [1] is Wistar rat bone marrow cells. The experiment in a line: Micronucleus in vivo assay in rat bone marrow. The following applies: single i.p. 30 mg/kg b.w., sacrifice 24 h. The source says:
Male albino Wistar rats aged 8–10 weeks and having body weight of 200–220 g, were used in the present study. The animals were supplied by the Animal Facility of the Department of Immunology, State Research Institute Center for Innovative Medicine. Ethical approval was given by the Committee of the Lithuanian Animal Care and Use. Prior to the start of the study, the animals were acclimatized for 7 days. They were housed under conditions of constant temperature, humidity and a light/dark cycle of 12 h/12 h with free access to standard commercial pellet diet and drinking water. The animals were randomly distributed into 11 experimental groups of six rats each.
We used a mixture of dimethylsulfoxide (DMSO) and sunflower oil (1:2) as the vehicle for 5,8-DHC (5,8-DHC was dissolved in DMSO and adjusted to the desired dose with sunflower oil immediately before administration). For the acute treatment, the animals received single intraperitoneal (i.p.) injections of 10 or 20 mg/kg of 5,8-DHC in 1 mL volume per 100 g body weight (b.w.). The negative control group comprised animals, given a single i.p. injection of vehicle (1 mL/100 g b.w.) and the positive control group, given cyclophosphamide (CP, 30 mg/kg adjusted in 0.5 mL/100 g b.w. in sterile physiological saline). A commercial form of cyclophosphamide was used (‘Endoxan’, ASTA Medica AG, Frankfurt, Germany). Blank controls comprised untreated animals. For the repeated treatment, 5,8-DHC (10 or 20 mg/kg) or vehicle was administered via gavage (1 mL/100 g b.w.) once a day for 3 consecutive days. Animals were sacrificed 24 h or 48 h after the last dose administration. Colchicine was applied i.p. at a dose of 2 mg/kg b.w. in 1 mL volume 90 min before sacrifice. Both femurs were dissected from each animal and used to obtain bone marrow preparations for the analysis of chromosome aberrations and micronucleus.
The bone marrow MN assay was conducted according to the standard procedure. Ends of the femura were cut off and the bone marrow was washed out with 2 mL of heat-inactivated foetal calf serum (Biochrom AG, Berlin, Germany), mixed thoroughly to obtain a fine suspension and centrifuged for 5 min at 150 × g. The supernatant was discarded and the cell pellet was carefully re-suspended. At least two smears per animal were prepared and allowed to air dry prior to fixation with methanol. The slides were stained in May-Grünwald solution followed by Giemsa (both Merck), coded and scored blind by the same scorer under magnification of 1000× (Jenaval, Zeiss, Jena, Germany). Micronucleated polychromatic erythrocyte (MNPCE) frequencies were based on the observation of 2,000 immature polychromatic erythrocytes (PCEs). Bone marrow toxicity was monitored by a decrease of PCE to total erythrocytes (e.g., PCEs+NCEs, normochromatic erythrocytes). At least 1,000 bone marrow erythrocytes per animal were analysed.

Data set [2] concerns Wistar rat bone marrow cells. The following applies: rats, single 30–40 mg/kg dose of CP; cited from earlier work.
Data set [3] relates to Chinese hamster ovary (CHO) cells. The following applies: doses up to 333 μM; cited from earlier work.
The subject of a further data set is human lymphocytes. The experiment in a line: Chromosome aberrations in human lymphocyte cultures in vitro. It is filed as cell-based. The following applies: female, human, 24 h, 0.02 µL/mL. As to the method: Blood samples were taken from two healthy female volunteers (donor A) and (donor B). Whole peripheral blood was grown in HEPES-buffered RPMI 1640 medium supplemented with 12% heat-inactivated newborn calf serum, 7.8 μg/mL phytohemagglutinin P, 50 μg/mL gentamycin, 10 μg/mL 5-bromo-2'-deoxyuridine. All reagents used for the cell culture were purchased from Sigma-Aldrich Chemical Co. (St. Louis, MO, USA). Cell cultures were incubated at 37 °C for 72 h. Treatment with test compounds was carried out 48 h after culture initiation and lasted for the period of 24 h. Dose range of 5,8-DHC (10 to 40 µg/mL) was based on pilot experiments (data not shown). As whole blood cultures display many properties common with the liver microsomal cytochrome P450 system, no external metabolising enzymes were added. 5,8-DHC was dissolved in ethanol and then diluted with RPMI 1640 medium to the desired concentration. Ethanol in a final concentration of 7.5µL/mL was used as a solvent control. […] Working solutions were made just before treatment. Two parallel cultures were used for each concentration of the compound tested. Two cultures were left untreated and served as a blank control. Methyl methanesulfonate (MMS) in a final concentration of 0.02 μL/mL was used as a positive control. The cultures were exposed to colchicine at a final concentration of 0.6 μg/mL for the last 3 h of incubation. The cells were harvested, hypotonically swollen in 0.075 M KCl and fixed in methanol: acetic acid (3:1). Air-dried slides were differentially stained by fluorescence plus Giemsa technique as has been described previously. Briefly, the slides were stained for 10 min. with 10 μg/mL of Hoechst 33258 dye (dissolved in 0.07 M Soerensen’s buffer, pH 6.8). Then the slides were rinsed, mounted with citrate buffer (pH 8.5), covered with cover slips and exposed to UV light (400 W mercury lamp at a distance of 15 cm) for 6–7 min. Slides were then rinsed and stained for 3–4 min. with 5% Giemsa. Cytogenetic analysis was performed on coded slides. No less than 100 first-mitotic division metaphases per culture were analysed for CAs, and no less than 50 second-division metaphases for SCEs.

The test system of data set [4] is Drosophila melanogaster wing cells. The experiment in a line: Somatic mutation and recombination test (SMART), wing spot test. In kind it is in vivo. The following applies: positive control, 50 μM MMS. As to the method: The basic procedures for the D. melanogaster somatic mutation and recombination test (SMART) were performed according to Graf and co-workers. Two D. melanogaster strains (kindly provided by Dr. H. Frei, Zurich, Switzerland) were used in the present study: virgin females from the strain ORR/ORR; flr^3/ In (3LR) TM3, ri p^p sep l(3)89Aa bx^34e e Bd^S were mated with mwh/mwh males. The ORR strain has chromosomes 1 and 2 from a DDT-resistant Oregon line, which are characterized by constitutively over-expressed CYP450 genes. The CYP 450 enzymes play the main role in the bioactivation of xenobiotics, as well as natural products including phytochemicals. Thus, the use of this high-bioactivation strain of D. melanogaster facilitates the detection of promutagens of numerous classes of compounds. The markers mwh (multiple wing hairs) and flr^3 (misshapen, flare-like hairs) are recessive wing-hair mutations located on the third chromosome at 0.3 and 38.8 respectively.
Eggs from the crosses were collected over 10 h periods. Progeny were raised on the Instant Drosophila Medium (Sigma Chemical Co., St. Louis, MO, USA) at 25 °C. Two schedules of the larvae treatment were applied. Firstly, the crossed flies were permitted to lay eggs for 10 h in vials containing medium prepared with 5,8-DHC solution. Thus, the exposure duration was about 120 h (i.e., evolutionary period from fly egg till case-worm). According to the second schedule, the 72 ± 5 h-old larvae were exposed to 5,8-DHC by adding test solution to the surface of the medium and were fed on this medium for the rest of their development, during approximately 48 h. 5,8-DHC was dissolved in ethanol and then diluted with distilled water to the desired concentration, with the final ethanol concentration 5% v/v. The solutions were always prepared immediately before use. Solvent controls were included in all treatments. Methyl methanesulfonate was included in the assay as a positive control. Trans-heterozygous (mwh flr^+ / mwh^+ flr^3) flies were collected and stored in a 70% ethanol. The wings of adult flies were mounted on glass slides in Faure’s solution, coded and scored at 400× magnification (Nikon E200) for the presence of single (mwh or flr^3 phenotype) or twin (adjacent mwh and flr^3 clones) spots. The spots were recorded according to standard procedures. No less than 40 wings were analysed per each experimental point. Two repeated experiments were carried out.

The test system of a further data set is male rat hepatocytes. The following applies: cited from earlier work.

`O=P1(N(CCCl)CCCl)NCCCO1` (stereo not drawn) [CP, cyclophosphamide, reference compound]: in data set [1], the “MNPCE (%± S.E.M.)” value is on record as 1.67 ± 0.22 ^a % and the “PCE (%± S.E.M.)” value was 34.8 ± 6.4%. In addition, the “frequency of abnormal metaphases” value in data set [2] is 16–21%.
Consider `O=c1ccc2ccc(O)cc2o1` [umbelliferone, 7-hydroxycoumarin], for which, in data set [3], the “increase in SCE or chromosome aberration” value is “no evidence of increase”.
For `COS(C)(=O)=O` [MMS, Methyl methanesulfonate, reference compound], the “CA per 100 cells (±S.E.M.)” value in the data set with human lymphocytes is listed as 12.0 ± 3.2 ^b per 100 cells. Besides, in data set [4], the large single spots turned out to be 4.63, the small single spots is 1.65, the “total spots per wing” value is listed as 7.15 spots per wing and the twin spots was 0.88. Also, in data set [4], the wings with spots is on record as 100%.
With `O=c1ccc2ccccc2o1` [coumarin, 1,2-benzopyrone], the “induction of UDS” value in the data set with male rat hepatocytes (oral administration, doses up to 320 mg/kg bw) is recorded as “does not induce UDS”. The maximum tolerated dose in the data set on male rat hepatocytes (rat, in vivo, po) was 320 mg/kg bw.
